Source: patent publication US5747448A, “Derivatives of cyclodepsipeptide PF 1022” (Meiji Seika Kaisha, Ltd., priority 1993, dated 1998)
Like-named read-outs stand apart in the source and are kept apart here.

Key:
fowl roundworms = test: Fowl Roundworm Eliminating Test; format: in vivo; conditions: infected fowls, worms counted to day 7
Description: Test 1 Fowl Roundworm Eliminating Test Fowls (three fowls per group), which had been artificially infected with fowl roundworms and whose infection therewith had been confirmed by scatoscopy, were used as experimental animals. Upon administration of each test substance, the test substance weighed in a dose (mg) accurately calculated on the basis of the body weight (kg) of each fowl was suspended in carboxymethylcellulose-containing water, and the resulting suspension was administered orally as a single dose unit using a stomach tube. After the administration, the worms eliminated from the fowls were counted daily. Seven days after the administration, the fowl was sacrificed and autopsied and the worms remaining in its intestinal tract were counted. The percent elimination was calculated in accordance with the following calculation equation: [formula] Each test substance is indicated by the corresponding substance code name shown above in Table 1.

[1] = amide bond, 24-membered ring, THF/DMF
[2] = tested on: Nippostrongylus brasillensis; test: Anthelmintic effects on a rat intestinal nematode (N. brasillensis-infected rats); format: in vivo; conditions: male Wistar rats; for Number of remaining worms (average value ± SD): 10 mg/kg p.o. 7 days after inoculation, autopsy 10 days after inoculation; for % Effectiveness: 10 mg/kg p.o., compared with infected control group
Description: Anthelmintic effects of certain PF1022 derivatives on a rat intestinal nematode were tested in accordance with the following method.
Sixteen male Wistar rats were divided into eight groups (two rats per group), and about 2,000 larval worms of Nippostrongylus brasillensis were hypodermically inoculated per rat. Seven days after the inoculation, PF1022, PF1022E, PF1022-002, PF1022-003, PF1022-209, PF1022-218 and PF1022-219 were, as test substances, forcedly administered p.o. to the rats in the groups, respectively, in an amount of 10 mg/kg per rat. Upon administration, each test substance (8 mg) was dissolved in 0.2 ml of dimethyl sulfoxide and then, the resultant solution was diluted with distilled water to give a 2 ml suspension. Ten days after the inoculation,the rats were each subjected to autopsy and imaginal worms parasitic on the small intestines were counted.
As the test results, the average of remaining worms in each of the eight groups and the percent effectiveness of the test substance in each group as compared with that of the infected control group are shown in Table 4.

With `CCOc1ccc(C[C@H]2OC(=O)[C@H](CC(C)C)N(C)C(=O)[C@@H](C)OC(=O)[C@H](CC(C)C)N(C)C(=O)[C@@H](Cc3ccccc3)OC(=O)[C@H](CC(C)C)N(C)C(=O)[C@@H](C)OC(=O)[C@H](CC(C)C)N(C)C2=O)cc1` [PF1022-016, cyclo-(L-MeLeu-D-PhLac-L-MeLeu-D-Lac-L-MeLeu-D-TYRA(OEt)-L-MeLeu-D-Lac)] the “% Elimination” value (fowl roundworms; single oral dose 0.5 mg/kg) was 55%, the “% Elimination” value (fowl roundworms; single oral dose 1.0 mg/kg) was 61% and the “% Elimination” value (fowl roundworms; single oral dose 2.0 mg/kg) was 100%.

`CCCC[C@H]1OC(=O)[C@H](CC(C)C)N(C)C(=O)[C@@H](Cc2ccccc2)OC(=O)[C@H](CC(C)C)N(C)C(=O)[C@@H](C)OC(=O)[C@H](CC(C)C)N(C)C(=O)[C@@H](Cc2ccccc2)OC(=O)[C@H](CC(C)C)N(C)C1=O` showed a ring closure, isolated yield ([1]; from H-MeLeu-dLac-MeLeu-dPhLac-MeLeu-dnorLEUA-MeLeu-dPhLac-OH, EDCI.HCl/HOBt/NMM/LiCl/NaCl/KCl/CsCl, 0.76 mM) of 82%.

With “cyclo-(L-MeLeu-D-PhLac-L-MeLeu-D-Lac-L-MeLeu-D-TYRA(O-All)-L-MeLeu-D-Lac) [PF1022-020]” the “% Elimination” value (fowl roundworms; single oral dose 1.0 mg/kg) was 54% and the “% Elimination” value (fowl roundworms; single oral dose 2.0 mg/kg) was 100%.

For `CC(C)C[C@H]1C(=O)O[C@H](Cc2ccc(O)cc2)C(=O)N(C)[C@@H](CC(C)C)C(=O)O[C@H](C)C(=O)N(C)[C@@H](CC(C)C)C(=O)O[C@H](Cc2ccccc2)C(=O)N(C)[C@@H](CC(C)C)C(=O)O[C@H](C)C(=O)N1C` [H-MeLeu-dLac-MeLeu-dTYRA-MeLeu-dLac-MeLeu-dPhLac-OH], the ring closure, isolated yield ([1]; from H-MeLeu-dLac-MeLeu-dTYRA-MeLeu-dLac-MeLeu-dPhLac-OH, EDCI.HCl/HOBt/NMM/LiCl/KCl/NaCl/CsCl, 0.89 mM) was 33%.

In the case of `CC(C)CC1NC(=O)C(Cc2ccccc2)OC(=O)C(CC(C)C)N(C)C(=O)C(C)OC(=O)C(CC(C)C)NC(=O)C(Cc2ccccc2)OC(=O)C(CC(C)C)N(C)C(=O)C(C)OC1=O` [PF1022-218, cyclo-(L-MeLeu-D-PhLac-L-Leu-D-Lac)2], the “Number of remaining worms (average value ± SD)” value [2] is reported as 2400 ± 362.0 and the “% Effectiveness” value [2] is reported as 0%.

For `CC(C)CC1C(=O)OC(CC2CCCCC2)C(=O)N(C)C(CC(C)C)C(=O)OC(C)C(=O)N(C)C(CC(C)C)C(=O)OC(CC2CCCCC2)C(=O)N(C)C(CC(C)C)C(=O)OC(C)C(=O)N1C` (stereo not shown) [PF1022-ADH, dodecahydro-PF1022], the “% Elimination” value (fowl roundworms; single oral dose 5 mg/kg) was 30%.

In the case of “cyclo-(L-MeLeu-D-VALA-L-MeLeu-D-Lac)2 [PF1022-209]”, the “Number of remaining worms (average value ± SD)” value [2] is reported as 827 ± 388.9, the “% Effectiveness” value ([2]; 10 mg/kg) is reported as 59.3% and the “% Effectiveness” value ([2]; listed as PF 1022-209, 10 mg/kg) is reported as 59.8%.

With `CC(C)CC1C(=O)OC(C)C(=O)N(C)C(CC(C)C)C(=O)OC(C)C(=O)N(C)C(CC(C)C)C(=O)OC(C)C(=O)N(C)C(CC(C)C)C(=O)OC(C)C(=O)N1C` [PF1022-002, cyclo-(L-MeLeu-D-Lac-)4] the “Number of remaining worms (average value ± SD)” value [2] was 1976.5 and the “% Effectiveness” value [2] was 2.7%.

With `CC(C)C[C@H]1C(=O)O[C@H](C(C)C)C(=O)N(C)[C@@H](CC(C)C)C(=O)O[C@H](C)C(=O)N(C)[C@@H](CC(C)C)C(=O)O[C@H](C(C)C)C(=O)N(C)[C@@H](CC(C)C)C(=O)O[C@H](C)C(=O)N1C` [Cyclo-(L-MeLeu-D-VALA-L-MeLeu-D-Lac)2] the ring closure, isolated yield ([1]; from H-MeLeu-dVALA-MeLeu-dLac-MeLeu-dVALA-MeLeu-dLac-OH, EDCI.HCl/HOBt/NMM/LiCl/NaCl/KCl/CsCl, 0.88 mM) was 92%.

For “cyclo-(L-MeLeu-D-PhLac-L-MeLeu-D-Lac-L-MeLeu-D-TYRA(OBn)-L-MeLeu-D-Lac) [PF1022-022]”, the “% Elimination” value (fowl roundworms; single oral dose 1.0 mg/kg) was 40%, the “% Elimination” value (fowl roundworms; single oral dose 2.0 mg/kg) was 93% and the “% Elimination” value (fowl roundworms; single oral dose 5 mg/kg) was 84%.

With `CC(C)C[C@H]1C(=O)O[C@H](Cc2ccc(OCc3ccccc3)cc2)C(=O)N(C)[C@@H](CC(C)C)C(=O)O[C@H](C)C(=O)N(C)[C@@H](CC(C)C)C(=O)O[C@H](Cc2ccc(OCc3ccccc3)cc2)C(=O)N(C)[C@@H](CC(C)C)C(=O)O[C@H](C)C(=O)N1C` [cyclo-(L-MeLeu-D-Lac-L-MeLeu-D-TYRA(OBn))2] the ring closure, isolated yield ([1]; from H-MeLeu-dLac-MeLeu-dTYRA(OBn)-MeLeu-dLac-MeLeu-dTYRA(OBn)-OH, EDCI.HCl/HOBt/NMM/LiCl/NaCl/KCl/CsCl, 0.66 mM, 25.0 °C) was 60.5%.

In the case of `CC(C)C[C@@H]1NC(=O)[C@@H](C)OC(=O)[C@H](CC(C)C)N(C)C(=O)[C@@H](Cc2ccccc2)OC(=O)[C@H](CC(C)C)NC(=O)[C@@H](C)OC(=O)[C@H](CC(C)C)N(C)C(=O)[C@@H](Cc2ccccc2)OC1=O` [Cyclo-(L-MeLeu-D-Lac-L-Leu-D-PhLac)2], the ring closure, isolated yield ([1]; from H-MeLeu-dLac-Leu-dPhLac-MeLeu-dLac-Leu-dPhLac-OH, EDCI.HCl/HOBt/NMM, LiCl/KCl/NaCl/CsCl, 0.96 mM, 25.0 °C, 3 steps) is reported as 55.8%.

In the case of `CCCCCC[C@H]1OC(=O)[C@H](CC(C)C)N(C)C(=O)[C@@H](C)OC(=O)[C@H](CC(C)C)N(C)C(=O)[C@@H](CCCCCC)OC(=O)[C@H](CC(C)C)N(C)C(=O)[C@@H](C)OC(=O)[C@H](CC(C)C)N(C)C1=O` [Cyclo-(L-MeLeu-D-OctA-L-MeLeu-D-Lac)2], the ring closure, isolated yield ([1]; from H-MeLeu-dOctA-MeLeu-dLac-MeLeu-dOctA-MeLeu-dLac-OH, EDCI.HCl/HOBt/NMM/LiCl/NaCl/KCl/CsCl, 0.81 mM) is reported as 92%.

For `CC(C)CC1C(=O)OC(CC2CCCCC2)C(=O)N(C)C(CC(C)C)C(=O)OC(C)C(=O)N(C)C(CC(C)C)C(=O)OC(Cc2ccccc2)C(=O)N(C)C(CC(C)C)C(=O)OC(C)C(=O)N1C` (stereo not shown) [PF1022-AHH, hexahydro-PF1022], the “% Elimination” value (fowl roundworms; single oral dose 5 mg/kg) was 62%.

Compound `CC(C)C[C@@H]1NC(=O)[C@@H](Cc2ccccc2)OC(=O)[C@H](CC(C)C)N(C)C(=O)[C@@H](C)OC(=O)[C@H](CC(C)C)NC(=O)[C@@H](Cc2ccccc2)OC(=O)[C@H](CC(C)C)N(C)C(=O)[C@@H](C)OC1=O` [Cyclo-(L-MeLeu-D-PhLac-L-Leu-D-Lac)2] has a ring closure, isolated yield ([1]; from H-MeLeu-dPhLac-Leu-dLac-MeLeu-dPhLac-Leu-dLac-OH, EDCI.HCl/HOBt/NMM, LiCl/KCl/NaCl/CsCl, 0.96 mM, 25.0 °C, 3 steps) of 62%.

For `CCCCOc1ccc(C[C@H]2OC(=O)[C@H](CC(C)C)N(C)C(=O)[C@@H](C)OC(=O)[C@H](CC(C)C)N(C)C(=O)[C@@H](Cc3ccccc3)OC(=O)[C@H](CC(C)C)N(C)C(=O)[C@@H](C)OC(=O)[C@H](CC(C)C)N(C)C2=O)cc1` [PF1022-021, cyclo-(L-MeLeu-D-PhLac-L-MeLeu-D-Lac-L-MeLeu-D-TYRA(O-n-Bu)-L-MeLeu-D-Lac)], the “% Elimination” value (fowl roundworms; single oral dose 1.0 mg/kg) was 41% and the “% Elimination” value (fowl roundworms; single oral dose 2.0 mg/kg) was 90%.

In the case of `CC(C)C[C@H]1C(=O)O[C@H](Cc2ccc(O)cc2)C(=O)N(C)[C@@H](CC(C)C)C(=O)O[C@H](C)C(=O)N(C)[C@@H](CC(C)C)C(=O)O[C@H](Cc2ccccc2)C(=O)N(C)[C@@H](CC(C)C)C(=O)O[C@H](C)C(=O)N1C` [PF1022 E, cyclo-(-L-Meleu-D-Lac-L-MeLeu-D-TYRA-L-MeLeu-D-Lac-L-MeLeu-D-PhLac)], the “Number of remaining worms (average value ± SD)” value [2] is reported as 2175 ± 134.4, the “% Effectiveness” value [2] is reported as 0% and the “% Elimination” value (fowl roundworms; single oral dose 0.5 mg/kg) is reported as 70%.

In the case of `COc1ccc(C[C@H]2OC(=O)[C@H](CC(C)C)N(C)C(=O)[C@@H](C)OC(=O)[C@H](CC(C)C)N(C)C(=O)[C@@H](Cc3ccccc3)OC(=O)[C@H](CC(C)C)N(C)C(=O)[C@@H](C)OC(=O)[C@H](CC(C)C)N(C)C2=O)cc1` [PF1022-005, cyclo-(-L-MeLeu-D-Lac-L-MeLeu-D-PhLac-L-MeLeu-D-Lac-L-MeLeu-D-TYRA(OMe)], the “% Elimination” value (fowl roundworms; single oral dose 0.5 mg/kg) is reported as 73%, the “% Elimination” value (fowl roundworms; single oral dose 1.0 mg/kg) is reported as 89% and the “% Elimination” value (fowl roundworms; single oral dose 2.0 mg/kg) is reported as 100%.

For `CC(C)C[C@H]1C(=O)O[C@H](C)C(=O)N(C)[C@@H](CC(C)C)C(=O)O[C@H](C)C(=O)N(C)[C@@H](CC(C)C)C(=O)O[C@H](C)C(=O)N(C)[C@@H](CC(C)C)C(=O)O[C@H](C)C(=O)N1C` [cyclo-(L-MeLeu-D-Lac-)4], the ring closure, isolated yield ([1]; from H-MeLeu-dLac-MeLeu-dLac-MeLeu-dLac-MeLeu-dLac-OH, EDCI.HCl/HOBt/NMM/KCl/CsCl, 1.0 mM, 3 steps) was 86%.

`CCCCCC[C@H]1OC(=O)[C@H](CC(C)C)N(C)C(=O)[C@@H](C)OC(=O)[C@H](CC(C)C)N(C)C(=O)[C@@H](Cc2ccccc2)OC(=O)[C@H](CC(C)C)N(C)C(=O)[C@@H](C)OC(=O)[C@H](CC(C)C)N(C)C1=O` gave a ring closure, isolated yield ([1]; from H-MeLeu-dOctA-MeLeu-dLac-MeLeu-dPhLac-MeLeu-dLac-OH, EDCI.HCl/HOBt/NMM/LiCl/NaCl/KCl/CsCl, 0.95 mM) of 24.7%.
